Where “and” joins values, the source holds several entries; their conditions need not be identical. Equal values may be shown once. Marks after values point to notes of the source that are not given here.
Key:
[1] = parameters: species or system Long-Evans rats; settings: rat, in vivo
Source text: For comparison purposes, values for the blood, plasma, liver (Table 13) and uterus from each of these animals were included.

[2] = tested on: ZR-75-1 human breast cancer xenografts; assay: Growth and response of human ZR-75-1 breast tumor xenografts in estrone-supplemented OVX nude mice, DHEA and/or EM-800 for 9.5 months (Example 1); format: in vivo; settings: 9.5 months; for Category of response: Complete (%) / Category of response: Complete (Number) / Category of response: Partial (%) / Category of response: Partial (Number) / Category of response: Progression (%) / Category of response: Progression (Number) / Category of response: Stable (%) / Category of response: Stable (Number) / Average tumor weight at end of experiment: E1-supplemented
[3] = 12-month treatment of ovariectomized rats with DHEA alone or with Flutamide or EM-800: bone histomorphometry, bone markers, serum lipids; format: in vivo, rat; settings: added to DHEA, OVX rats, 12 months
[4] = Uterine, vaginal and body weight in estrone-supplemented OVX nude mice (Example 1); format: in vivo; settings: E1-supplemented
Description: DHEA was dissolved in 50% ethanol 50% propylene glycol. […] Tumors were measured once a week with Vernier calipers.

[5] = 12-week oral EM-800 (0.5 mg/kg) in intact rats: serum 17β-estradiol, mammary gland and endometrium histology; format: in vivo, rat; settings: 12 weeks
Description: The lobules (L) consist of a few alveoli. Insert. High magnification showing alveoli. • b) Animal treated with EM-800 (0.5 mg/kg, b w per day) for 12 weeks. […] Insert. High magnification showing atrophied alveolar cells.
The luminal epithelium (LE) is characterized by columnar epithelial cells while the glandular epithelium (GE) is rather cuboidal. The stroma contains several cellular elements and collagen fibers. • b) Animal treated with EM-800 (0.5 mg/kg, b w per day) during 12 weeks. […] The glandular epithelial cells have unstained cytophasm with no sign of activity. The stroma is highly cellular due to reduction in intercellular elements of the stroma.

[6] = 9-month treatment with DHEA and/or EM-800 in the rat: urinary and serum markers of bone metabolism; format: in vivo
Source text: It is particularly important to indicate that the combination of DHEA and EM-800 exerted unexpected beneficial effects on important biochemical parameters of bone metabolism. […] Moreover, no effect of DHEA could be detected on daily urinary calcium or phosphorus excretion (Luo et al., 1997). EM-800 decreased the urinary hydroxyproline/creatinine ratio by 48% while, similarly to DHEA, no effect of EM-800 was seen on urinary calcium or phosphorus excretion. EM-800, moreover, had no effect on serum alkaline phosphatase activity, a marker of bone formation while DHEA increased the value of the parameter by about 75% (Luo et al., 1997).

[7] = Endometrial epithelium thickness in OVX nude mice after 161 days of antiestrogen (Example 8); format: in vivo
Source text: The 17 groups included two control groups (OVX and OVX+Estrone), seven groups supplemented with an estrone implant and treated with an antiestrogen and eight other groups that received an antiestrogen alone. The estrone implants were then removed from the animals in the ovariectomized control group (OVX) and in groups that were to receive the antiestrogen alone. […] Tamoxifen was purchased from […]) while toremifene citrate was purchased from Orion (Espoo, Finland). […] The antiestrogen suspensions at the appropriate concentration were prepared each month, stored at 4° C. and used under constant agitation. Powder stock were hermetically stored at 4° C. […] After 161 days of treatment, the remaining animals were anesthetized with isoflurane and killed by exsanguination. […] The uteri were prepared to evaluate endometrial thickness by image analysis performed with Image Pro-Plus (Media Cybernetics, Maryland, USA). […] Hematoxylin- and eosin-stained sections of mice uteri were analyzed. […] Mean epithelial cell height was measured in all animals of each group.

[8] = tested on: ZR-75-1 human breast cancer xenografts; assay: Tamoxifen and EM-652.HCl alone or combined on growth of ZR-75-1 xenografts in nude mice (FIG. 7); format: in vivo; settings: ZR-75-1 xenografts in nude mice
[9] = tested on: ZR-75-1 human breast cancer xenografts; assay: Growth and response of human ZR-75-1 breast tumors in OVX nude mice, 7 antiestrogens for 161 days with or without estrone (Example 8); format: in vivo
Description: ZR-75-1 human breast cancer cells were obtained from the American Type Culture Collection (Rockville, Md.) and cultured in phenol red-free RPMI-1640 medium. […] (Saint-Constant, Québec, Canada). The mice (5 per cage) were housed in vinyl cages equipped with air filter lids, which were kept in laminar airflow hoods and maintained under pathogen-limiting conditions. The photoperiod was 12 hours of light and 12 hours of darkness (lights on at 07:15). Cages, bedding and food (Agway Pro-Lab R-M-H Diet #4018) were autoclaved before use. Water was autoclaved and provided ad libitum. Bilateral ovariectomy was performed under isoflurane-induced anesthesia. […] Randomization and treatments were started one week later. […] The estrone implants were then removed from the animals in the ovariectomized control group (OVX) and in groups that were to receive the antiestrogen alone. […] Tamoxifen was purchased from […]) while toremifene citrate was purchased from Orion (Espoo, Finland). […] The antiestrogen suspensions at the appropriate concentration were prepared each month, stored at 4° C. and used under constant agitation. Powder stock were hermetically stored at 4° C. […] Two perpendicular diameters were recorded and tumor area (mm2) was calculated using the formula: […] Tumor response was assessed at the end of the study or at death of each animal, if it occurred during the course of the experiment. In this case, only data of mice that survived for at least half of the study ([…]) were used in the tumor response analysis.

[10] = DHEA 0.3 mg, EM-800 15 μg, or EM-800 15 μg + DHEA 0.3 mg
[11] = DHEA 1.0 mg, EM-800 50 μg, or EM-800 15 μg + DHEA 1.0 mg
[12] = DHEA 3.0 mg, EM-800 100 μg, or EM-800 15 μg + DHEA 3.0 mg
[13] = EM-800 15 μg, or EM-800 15 μg + DHEA 0.3 mg
[14] = EM-800 50 μg, or EM-800 15 μg + DHEA 1.0 mg
[15] = EM-800 100 μg, or EM-800 15 μg + DHEA 3.0 mg
[16] = DHEA 10 mg, EM-800 75 μg, alone or combined
[17] = absence of estrone, 200 μg daily, 161 days
[18] = estrone-supplemented, 50 μg daily, 161 days

## CC1=C(c2ccc(O)cc2)[C@H](c2ccc(OCCN3CCCCC3)cc2)Oc2cc(O)ccc21 [EM-652]
[1]
  accessibility to the CNS: very poor accessibility

## CC1=C(c2ccc(OC(=O)C(C)(C)C)cc2)[C@H](c2ccc(OCCN3CCCCC3)cc2)Oc2cc(OC(=O)C(C)(C)C)ccc21 [EM-800, (+)-7-pivaloyloxy-3-(4′-pivaloyloxyphenyl)-4-methyl-2-(4″-(2′″-piperidi-noethoxy)phenyl)-2H-benzopyran]
[2]; daily DHEA 0.3 mg or EM-800 15 μg
  Inhibition of estrone-stimulated ZR-75-1 tumor size: 88% and 87.5%
[2]; daily DHEA 1.0 mg or EM-800 50 μg
  Inhibition of estrone-stimulated ZR-75-1 tumor size: 93% and 93.5%
[2]; daily DHEA 3.0 mg or EM-800 100 μg
  Inhibition of estrone-stimulated ZR-75-1 tumor size: 94%
[2]; [10]
  Category of response: Complete (%): 29.4%
  Category of response: Complete (Number): 5
  Category of response: Partial (%): 5.9%
  Category of response: Partial (Number): 1
  Category of response: Progression (%): 35.3%
  Category of response: Progression (Number): 6
  Category of response: Stable (%): 29.4%
  Category of response: Stable (Number): 5
[2]; [11]
  Category of response: Complete (%): 25.0%
  Category of response: Complete (Number): 4
  Category of response: Partial (%): 18.8%
  Category of response: Partial (Number): 3
  Category of response: Progression (%): 25.0%
  Category of response: Progression (Number): 4
  Category of response: Stable (%): 31.2%
  Category of response: Stable (Number): 5
[2]; [12]
  Category of response: Complete (%): 50.0%
  Category of response: Complete (Number): 8
  Category of response: Partial (%): 0 (0) %
  Category of response: Partial (Number): 0 (0)
  Category of response: Progression (%): 31.2%
  Category of response: Progression (Number): 5
  Category of response: Stable (%): 18.8%
  Category of response: Stable (Number): 3
[2]; daily DHEA 0.3 mg, EM-800 15 μg, or EM-800 15 μg + DHEA 0.3 mg
  Average tumor weight at end of experiment: 0.08 ± 0.03 g
[2]; daily DHEA 1.0 mg, EM-800 50 μg, or EM-800 15 μg + DHEA 1.0 mg
  Average tumor weight at end of experiment: 0.03 ± 0.01 g
[2]; daily DHEA 3.0 mg, EM-800 100 μg, or EM-800 15 μg + DHEA 3.0 mg
  Average tumor weight at end of experiment: 0.04 ± 0.03 g
[3]
  reversal of the stimulatory effect of DHEA on serum alkaline phosphatase: no significant effect
[4]; [13]
  UTERINE WEIGHT: 49 ± 3 mg
  VAGINAL WEIGHT: 23 ± 1 mg
[4]; [14]
  UTERINE WEIGHT: 36 ± 2 mg
  VAGINAL WEIGHT: 15 ± 1 mg
[4]; [15]
  UTERINE WEIGHT: 32 ± 1 mg
  VAGINAL WEIGHT: 11 ± 1 mg
[5]; EM-800 0.5 mg/kg orally daily
  elevation of circulating 17β-estradiol versus intact animals: 50%
[5]; EM-800 0.5 mg/kg
  effect on the endometrium (histology): marked atrophy
  effect on the mammary gland (histology): marked atrophy
[5]; intact rats, EM-800 0.5 mg/kg orally daily
  circulating levels of 17β-estradiol: 143.5 ± 7.8 pg/mL
[6]
  decrease of urinary hydroxyproline/creatinine ratio (marker of bone resorption): 48%
  effect on daily urinary calcium or phosphorus excretion: no effect
  increase of serum alkaline phosphatase activity (marker of bone formation): no effect
[6]; [16]
  Serum tALP: 114.11 ± 11.26 IU/L
  Urine HP/Cr: 6.81 ± 0.84 μmol/mmol
  Urine calcium: 17.44 ± 4.5 μmol/24 h/100 g
  Urine phosphorus: 102.03 ± 25.13 μmol/24 h/100 g

## CC/C(=C(\c1ccccc1)c1ccc(OCCN(C)C)cc1)c1ccccc1 [Tamoxifen, (Z)-2-[4-(1,2-diphenyl-1-butenyl)phenoxy]-N,N-dimethylethanamine]
[7]; 50 μg daily oral, estrone stimulation
  inhibition of the stimulatory effect of estrone on epithelial height: 32%
[7]; 200 μg daily, absence of estrone
  height of uterine epithelial cells, % of the OVX control group value: 155%
[7]; OVX + E1, antiestrogen 50 μg daily
  ENDOMETRIAL EPITHELIUM THICKNESS (μm) ± SEM: 33.44^b,d ± 0.04 μm
[7]; OVX without E1, antiestrogen 200 μg daily
  ENDOMETRIAL EPITHELIUM THICKNESS (μm) ± SEM: 28.47^b,d ± 0.05 μm
[8]
  stimulatory effect on tumor growth: approximately 100%
[9]; [17]
  increase of average tumor size over baseline (agonistic effect): 196%
  tumors in the progression category, %: 62%
  tumors in the progression category, number of total: 16 of 26
[9]; estrone-stimulated, 50 μg oral daily, 23 weeks
  average tumor size above pretreatment values: 87%
[9]; [18]
  progressing tumors, % of tumors: 65%
  progressing tumors, number of total: 17 of 26

Reference: patent US11452731B2, “Method of treating and preventing loss of cognition” (ENDORECHERCHE, INC., priority 2009, dated 2022)
